Assay results reported in patent publication US7902170B2, “Influenza virus binding, sialylated oligosaccharide substance and use thereof” (priority 2000, dated 2011).
“Also recorded” adds a separate entry of the source.

system: avian virus A/duck/Czechoslovakia/56, H4N6; format: binding, avian influenza A virus (H4N6)

Substance | Binding of avian influenza virus HRP conjugate to glycolipid on TLC plate
NeuAcα3Galβ3GalNAcβ4(NeuAcα8NeuAcα3)Galβ4GlcβCer [GT1b] | binding
NeuAcα3Galβ4GlcβCer [GM3] | not observed
NeuAcα3Galβ3GalNAcβ4(NeuAcα3)Galβ4GlcβCer [GD1a] | binding
NeuAcα3Galβ4GlcNAcβ3Galβ4GlcβCer [S-3-PG] | binding; also recorded: bound
sulfatide | probably unspecific interaction
